Article PMC3692431, “Anticonvulsant Activity of B2, an Adenosine Analog, on Chemical Convulsant-Induced Seizures” (PLoS ONE, 2013)

What was measured:
[1] = test system: rat adenosine A2A receptors; set-up: method as in PMID 22242450; conditions: cited from earlier work
[2] = test system: strychnine-induced seizures; assay: Strychnine-induced seizures in mice; format: in vivo; conditions: strychnine 1.5 mg/kg i.p.; for mortality rate: control 88%; for latency to seizure onset prolonged by: vs control
Protocol: KA was dissolved in saline and the pH was adjusted to neutrality. The final concentration of KA was 0.7 µg/µl, and the convulsant dose was 1 µl (i.c.v.). […] The selective adenosine receptor antagonist DPCPX or SCH58261 was administered (i.p.) 5 min before administration of B2 or vehicle.
Mice were injected with B2 (1.25, 5, 20 mg/kg), carbamazepine (80 mg/kg) or vehicle 20 min before administration of strychnine (1.5 mg/kg) or 4-AP (13 mg/kg). […] The time of latency to seizure onset and mortality rate were recorded.

[3] = test system: c-Fos expression in the hippocampus; assay: PTZ-induced c-Fos expression, western blot; format: in vivo, mice; conditions: B2 5 mg/kg + PTZ 85 mg/kg, 2 h, PTZ alone 8 times
Protocol: Mice were injected with either B2 (5 mg/kg) or vehicle 20 min before administration of PTZ (85 mg/kg). Two hours later, mice were either anesthetized for c-Fos analysis using immunohistochemistry or decapitated or western blotting.
Mice were decapitated and the hippocampus was quickly dissected on ice. The hippocampus was then homogenized in 20 volumes of cell lysis buffer. The homogenates were incubated on ice for 15 min and centrifuged at 12000×g for 5 min at 4°C. The supernatant containing the crude nuclear extract was collected and the protein content estimated using a Bradford assay. Protein samples […] were electrophoresed in 10% SDS-PAGE at 150 V for 3 h. The samples were then electroblotted onto nitrocellulose membranes at 20 V. The membranes were blocked using 5% dry non-fat milk in 0.1% TBST solution, and incubated overnight on a shaker with anti-c-Fos rabbit antibody (SC-52g) diluted 1∶800 (Santa Cruz Biotechnology). On the following day, the blots were washed using 0.1% TBST solution and incubated for 2 h with anti-rabbit peroxidase-conjugated secondary antibody. The blots were then washed using 0.1% TBST solution. After adding super ECL plus solution, the protein bands were detected using ECL (Fuji Digital Science), as described by the manufacturer. The optical density of the intensity of the bands was measured using Gel Pro Analyzer (version 4.0).

[4] = molecular target: T1, recombinant human adenosine A1 receptor (Homo sapiens, UniProt P30542); assay: cAMP accumulation assay in CHO cells expressing A1 receptor; format: cell-based; conditions: CHO cells stably expressing human A1 receptor; forskolin-stimulated cAMP; read-out: EC50, decrease of cellular cAMP level
T1 construct: expressed in transfected cells; host or cells: CHO cells (provided by Professor R. B. Su)
T1 sequence (P30542 1-326): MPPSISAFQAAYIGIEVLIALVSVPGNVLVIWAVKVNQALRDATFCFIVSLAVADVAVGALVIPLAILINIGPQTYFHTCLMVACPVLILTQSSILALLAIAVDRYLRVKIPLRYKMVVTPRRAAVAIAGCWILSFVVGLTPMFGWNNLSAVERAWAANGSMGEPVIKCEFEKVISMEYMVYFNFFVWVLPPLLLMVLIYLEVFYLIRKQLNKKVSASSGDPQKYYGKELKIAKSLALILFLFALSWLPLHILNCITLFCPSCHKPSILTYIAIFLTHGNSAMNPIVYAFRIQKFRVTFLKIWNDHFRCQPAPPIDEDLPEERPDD
Protocol: (§1) Chinese hamster ovary (CHO) cells expressing recombinant human A1/A2A receptors (provided by Professor R. B. Su of the Institute of Pharmacology and Toxicology, Academy of Military Medical Sciences, Beijing, China) were cultured in Dulbecco’s Modified Eagles Medium with the F12 nutrient mixture (DMEM/F12) containing no nucleosides, and with 10% fetal calf serum, penicillin (100 U/ml), streptomycin (100 µg/ml), L-glutamine (2 mM), and Geneticin at 37°C in a 5% CO2/95% atmosphere. The cells used to determine cAMP levels had viability >95%, as assessed by trypan blue exclusion.
(§2) Intracellular cyclic adenosine monophosphate (cAMP) levels were measured using a competitive protein binding method. To measure A1/A2A receptor-mediated accumulation of cAMP, cells were grown as confluent monolayers in 24-well cluster dishes. The cells were washed twice with 2 mL of medium containing 20 mM HEPES that had been prewarmed to 37°C, pH 7.4. The cells were then preincubated for 15 min in 0.4 mL fresh medium containing 30 µM of the cAMP phosphodiesterase inhibitor rolipram. B2 was added in 0.1 mL of medium and incubations continued for 15 min. The reaction was then terminated by removing the supernatant, and cells were lysed with the addition of 500 µl of 0.1 M ice-cold HCl. The cell lysate was centrifuged (4,000×g) at 4°C for 10 min. […] Bound radioactivity was measured by liquid scintillation spectrometry.

PTZ-induced seizures = PTZ-induced seizures in mice; format: in vivo; conditions: PTZ 85 mg/kg s.c.; for seizure occurrence: all control mice seized; for latency to seizure onset prolonged by / number of seizures reduced by: vs control
Protocol: The latency of seizure onset, number of seizures, and mortality rate was recorded for the picrotoxin-injected mice. For the PTZ-injected mice, we recorded the latency of seizure onset, number of seizures, and presence of clonic seizures.

[5] = molecular target: T2, recombinant human adenosine A2A receptor (Homo sapiens, UniProt P29274); assay: cAMP accumulation assay in CHO cells expressing A2A receptor; format: cell-based; conditions: CHO cells expressing human A2A receptors; read-out: EC50, elevation of cAMP levels
T2 construct: expressed in transfected cells; host or cells: CHO cells (provided by Professor R. B. Su)
Protocol: as §1, §2

T2 sequence (P29274 whole entry): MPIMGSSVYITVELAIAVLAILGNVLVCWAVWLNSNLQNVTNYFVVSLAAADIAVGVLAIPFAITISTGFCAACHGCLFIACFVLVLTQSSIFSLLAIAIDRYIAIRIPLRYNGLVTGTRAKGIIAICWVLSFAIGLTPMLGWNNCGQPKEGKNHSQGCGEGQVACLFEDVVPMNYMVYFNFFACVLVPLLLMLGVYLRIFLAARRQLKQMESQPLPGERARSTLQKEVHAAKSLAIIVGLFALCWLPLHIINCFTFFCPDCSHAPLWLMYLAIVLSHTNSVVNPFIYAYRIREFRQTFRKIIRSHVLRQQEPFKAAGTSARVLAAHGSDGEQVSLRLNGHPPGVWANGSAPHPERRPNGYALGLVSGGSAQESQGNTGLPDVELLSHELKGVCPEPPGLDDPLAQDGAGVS

In the case of `COc1cc(CNc2ncnc3c2ncn3[C@@H]2O[C@H](CO)[C@@H](O)[C@H]2O)ccc1O` [B2, N^6-(3-methoxyl-4-hydroxybenzyl) adenine riboside], the “affinity for rat adenosine A2A receptors” value [1] is given as “moderate affinity”, the mortality rate ([2]; B2 1.25 mg/kg i.p.) is given as 71% and the “latency to seizure onset prolonged by” value ([2]; B2 1.25 mg/kg i.p.) is given as 45%. The mortality rate ([2]; B2 5 mg/kg i.p.) was 43%, the “latency to seizure onset prolonged by” value ([2]; B2 5 mg/kg i.p.) was 88% and the mortality rate ([2]; B2 20 mg/kg i.p.) was 57%. For the same compound, the “latency to seizure onset prolonged by” value ([2]; B2 20 mg/kg i.p.) was 89%, the “c-Fos expression in the hippocampus, times larger than vehicle control group” value [3] was 1.5 times and the EC50 [4] was 180 nM. The seizure occurrence (PTZ-induced seizures; B2 1.25 mg/kg i.p.) was 70%, the “latency to seizure onset prolonged by” value (PTZ-induced seizures; B2 1.25 mg/kg i.p.) was 43% and the “number of seizures reduced by” value (PTZ-induced seizures; B2 1.25 mg/kg i.p.) was 39%. The seizure occurrence (PTZ-induced seizures; B2 5 mg/kg i.p.) was 30%, the “latency to seizure onset prolonged by” value (PTZ-induced seizures; B2 5 mg/kg i.p.) was 89% and the “number of seizures reduced by” value (PTZ-induced seizures; B2 5 mg/kg i.p.) was 70%. The seizure occurrence (PTZ-induced seizures; B2 20 mg/kg i.p.) was 50%, the “latency to seizure onset prolonged by” value (PTZ-induced seizures; B2 20 mg/kg i.p.) was 93% and the “number of seizures reduced by” value (PTZ-induced seizures; B2 20 mg/kg i.p.) was 62%. The EC50 [5] was 320 nM.
